From patent publication US7175872B2, “Pyridinium-Betain compounds for use as taste modulators” (Nestec S.A., priority 2002, dated 2007)
Counter-ions that a name gives are not always drawn.

Columns and labels:
Format in all cases: in vivo
sweet taste of sucrose = experiment: Sweet taste detection threshold of sucrose/Pyridinium-Betaine mixtures (triangle test, sensory panel); set-up: key to Threshold decrease: fold decrease of sweet threshold vs pure sucrose
Protocol: (§1) • Sensory panel training: […] Sensory analyses were performed in a sensory panel room at 22-25° C. on three different sessions. • Taste thresholds: The taste thresholds of the tastants or mixtures containing basic tastants plus Pyridinium-Betains were determined in a triangle test using Evian® mineral water as the solvent at a defined pH ([…] and H.-D. Belitz, Z. Lebensm. Unters. Forsch. 1975, 159, 65-72). The samples (3 mL) were presented in order of increasing concentrations (serial 1:1 dilutions). The threshold values evaluated in two different sessions were averaged. […] The taste intensities of aqueous (Evian®) solutions containing a basic tastant, such as glucose and MSG, for example, in constant concentrations and the compounds of the general formula (A), for example […], in various concentrations were compared with those of a solution containing the basic tastant only. To achieve this, triangle tests were performed with two glass vials containing the basic tastant in constant concentrations, and one glass vial containing a stepwise 1:1-diluted mixture of basic […]. […] The relative taste strength (taste enhancing factor) of a mixture containing the basic […] was related to the basic tastants glucose, MSG, or other tastants, respectively, as standard substances, and was determined as the ratio of the concentrations c of iso-intensely tasting solutions of the basic tastant, such as glucose (glc), and the mixture containing tastant plus Pyridinium-Betain, […])=[…] This taste enhancing effect is illustrated in examples. The sweet taste thresholds of equimolar mixtures of sweet tasting compounds and various Pyridinium-Betaines were determined by a triangle test using EVIAN® mineral water as the solvent. The sensorial evaluations were performed at different pH values. The equimolar mixture of […] and sucrose at pH 7.0 was evaluated with a 4-fold lower sweet threshold concentration than pure sucrose (Table 1).

umami taste of MSG = experiment: Umami taste detection threshold of MSG/Pyridinium-Betaine mixtures (triangle test, sensory panel)
Protocol: (§2) • Sensory panel training: […] Sensory analyses were performed in a sensory panel room at 22-25° C. on three different sessions. • Taste thresholds: The taste thresholds of the tastants or mixtures containing basic tastants plus Pyridinium-Betains were determined in a triangle test using Evian® mineral water as the solvent at a defined pH ([…] and H.-D. Belitz, Z. Lebensm. Unters. Forsch. 1975, 159, 65-72). The samples (3 mL) were presented in order of increasing concentrations (serial 1:1 dilutions). The threshold values evaluated in two different sessions were averaged. […] The taste intensities of aqueous (Evian®) solutions containing a basic tastant, such as glucose and MSG, for example, in constant concentrations and the compounds of the general formula (A), for example […], in various concentrations were compared with those of a solution containing the basic tastant only. To achieve this, triangle tests were performed with two glass vials containing the basic tastant in constant concentrations, and one glass vial containing a stepwise 1:1-diluted mixture of basic […]. […] The relative taste strength (taste enhancing factor) of a mixture containing the basic […] was related to the basic tastants glucose, MSG, or other tastants, respectively, as standard substances, and was determined as the ratio of the concentrations c of iso-intensely tasting solutions of the basic tastant, such as glucose (glc), and the mixture containing tastant plus Pyridinium-Betain, […])=[…] […] This taste enhancing effect is illustrated in examples. Pyridinium-Betaines not only enhance the sweet taste perception, but also the umami taste.

sweet taste of glucose = experiment: Sweet taste detection threshold of glucose/Pyridinium-Betaine mixtures (triangle test, sensory panel); conditions: equimolar mixture with glucose, pH 7.0; for Threshold decrease: vs glucose in water 50.0 mmol/L
Protocol: as §1, with “1). […] is able to reduce the sweet threshold of glucose 16-fold at pH 7.0 and pH 9.0, whereas at pH 5.0 a gain the sweet taste perception […] (Table 2). […] Using the dipeptide derivative (S)-[…] as a taste-enhancer leads to a 16-fold threshold reduction compared to glucose.” for “1).”

salty taste of NaCl = experiment: Salt taste detection threshold of NaCl/Pyridinium-Betaine mixtures (triangle test, sensory panel)
Protocol: • Sensory panel training: […] Sensory analyses were performed in a sensory panel room at 22-25° C. on three different sessions. • Taste thresholds: The taste thresholds of the tastants or mixtures containing basic tastants plus Pyridinium-Betains were determined in a triangle test using Evian® mineral water as the solvent at a defined pH ([…] and H.-D. Belitz, Z. Lebensm. Unters. Forsch. 1975, 159, 65-72). The samples (3 mL) were presented in order of increasing concentrations (serial 1:1 dilutions). The threshold values evaluated in two different sessions were averaged. […] The taste intensities of aqueous (Evian®) solutions containing a basic tastant, such as glucose and MSG, for example, in constant concentrations and the compounds of the general formula (A), for example […], in various concentrations were compared with those of a solution containing the basic tastant only. […] The relative taste strength (taste enhancing factor) of a mixture containing the basic […] was related to the basic tastants glucose, MSG, or other tastants, respectively, as standard substances, and was determined as the ratio of the concentrations c of iso-intensely tasting solutions of the basic tastant, such as glucose (glc), and the mixture containing tastant plus Pyridinium-Betain, […])=[…] […] This taste enhancing effect is illustrated in examples.

bitter taste of caffeine = experiment: Bitter intensity ranking with Glypyridaine: caffeine; conditions: no Glypyridaine, scale 0-5
Excerpt: Instead of working with low concentrated solutions at the bitter threshold, another series of experiments use carried out using more concentrated solutions of various bitter compounds to evaluate the bitter-blocking properties of Pyridinium-Betaines based on non-chiral amino acids. […] The bitter-reducing effect was most pronounced with L-Phenylalanine, the dipeptide H-Gly-Leu-OH, and caffeine.

sweet taste of L-alanine = experiment: Sweet taste detection threshold of L-alanine/Pyridinium-Betaine mixtures (triangle test, sensory panel); conditions: L-alanine alone
Protocol: as §2, with “Besides the two carbohydrates,” for “Pyridinium-Betaines not only enhance”, “sweet amino acid L-alanine was also tested with […]. Again, the best impact on sweet” for “sweet”, “perception was found for” for “perception, but also”, “mixture at pH 9.0, resulting in an 8-fold lower threshold.” for “umami taste.”

[1] = sweet, vs sucrose alone (Table 10)
[2] = umami, MSG and mixtures with Alapyridaine enantiomers (Table 9), pH not stated
[3] = equimolar mixture with MSG, pH 7.0
[4] = equimolar mixture with MSG, pH 7.0, vs MSG in water 1.5 mmol/L
[5] = equimolar mixture with sucrose, pH 7.0
[6] = equimolar mixture with sucrose, pH 9.0
[7] = equimolar mixture with sucrose, pH 9.0, vs sucrose in water 12.5 mmol/L

SMILES: C[C@@H](C(=O)[O-])[n+]1cc(O)ccc1CO [(+)-(S)-Alapyridaine, (S)-N-(1-carboxyethyl)-3-hydroxy-6-hydroxymethyl-pyridinium inner salt]
- Threshold decrease (sweet taste of sucrose; [1]): 8
- Detection threshold (umami taste of MSG; [2]): 0.2 mmol/kg water

SMILES: O=C(C[n+]1cc(O)ccc1CO)N[C@@H](Cc1ccccc1)C(=O)[O-] [(S)-GlyPhepyridaine, (S)-N-[N(1-carboxy-2-phenyl-ethyl)-carboxamido-methyl]-3-hydroxy-6-hydroxymethyl-pyridinium inner salt]
- Sweet detection threshold (sweet taste of glucose): 3.0 mmol/kg water
- Taste quality (sweet taste of glucose): sweet
- Threshold decrease (sweet taste of glucose): 16
- Taste quality (umami taste of MSG; [3]): umami
- Umami detection threshold (umami taste of MSG; [3]): 0.2 mmol/kg water
- Threshold decrease (umami taste of MSG; [4]): 8.0

SMILES: C[C@H](C(=O)[O-])[n+]1cc(O)ccc1CO [(−)-(R)-Alapyridaine, (R)-N-(1-carboxyethyl)-3-hydroxy-6-hydroxymethyl-pyridinium inner salt]
- Threshold decrease (sweet taste of sucrose; [1]): does not alter the sweet taste perception of sucrose
- Threshold decrease (umami taste of MSG; umami, vs MSG alone (Table 9)): does not have any taste enhancing impact
- Threshold decrease (salty taste of NaCl; salty, vs NaCl alone (Table 11)): did not alter the taste of the aqueous salt solution

SMILES: Cn1c(=O)c2c(ncn2C)n(C)c1=O [Caffeine, reference compound]
- Bitter taste intensity (bitter taste of caffeine; Caffeine 4 mmol/L water): 3
- Bitter taste intensity (bitter taste of caffeine; Caffeine 8 mmol/L water): 4.5
- Bitter taste intensity (bitter taste of caffeine; Caffeine 16 mmol/L water): 5

SMILES: O=C(O)CCC(C(=O)[O-])[n+]1cc(O)ccc1CO (stereo not shown) [Glupyridaine, N-(1,3-dicarboxypropyl)-3-hydroxy-6-hydroxymethyl-pyridinium inner salt]
- Sweet detection threshold (sweet taste of sucrose; [5]): 12.0 mmol/kg water
- Taste quality (sweet taste of sucrose; [5]): sweet
- Sweet detection threshold (sweet taste of sucrose; [6]): 6.0 mmol/kg water
- Taste quality (sweet taste of sucrose; [6]): sweet
- Threshold decrease (sweet taste of sucrose; [7]): 2
- Taste quality (umami taste of MSG; [3]): umami
- Umami detection threshold (umami taste of MSG; [3]): 0.4 mmol/kg water
- Threshold decrease (umami taste of MSG; [4]): 4.0

SMILES: C[C@H](N)C(=O)O [L-alanine, reference compound]
- threshold of L-alanine in water (sweet taste of L-alanine): ^aThe threshold of L-alanine in water is 12.5 mmol/L.

SMILES: N[C@@H](CCC(=O)O)C(=O)[O-].[Na+] [MSG, monosodium glutamate, reference compound]
- threshold of MSG in water (umami taste of MSG; MSG alone): ^aThe threshold of MSG in water is 1.5 mmol/L.
- Taste quality (umami taste of MSG; MSG and mixtures with Alapyridaine enantiomers (Table 9), pH not stated): umami
- Detection threshold (umami taste of MSG; [2]): 1.5 mmol/kg water

SMILES: O=C([O-])[C@H](Cc1ccccc1)[n+]1cc(O)ccc1CO [Phepyridaine]
- Sweet detection threshold (sweet taste of sucrose; [5]): 3.0 mmol/kg water
- Taste quality (sweet taste of sucrose; [5]): sweet
- Threshold decrease (sweet taste of sucrose; equimolar mixture with sucrose, pH 7.0, vs sucrose in water 12.5 mmol/L): 4.0
- Sweet detection threshold (sweet taste of sucrose; [6]): 1.5 mmol/kg water
- Taste quality (sweet taste of sucrose; [6]): sweet
- Threshold decrease (sweet taste of sucrose; [7]): 8.0
- concentration above which a rubber-like off-taste is imparted (sweet taste of sucrose; mixture with sucrose): above 3 mmol/kg
- concentration above which the sweetness is associated with a rubber-like taste (sweet taste of sucrose; mixture with sucrose): ^bThe sweetness is associated with a rubber-like taste in concentrations higher than 3 mmol/L.
- Sweet detection threshold (sweet taste of glucose): 3.0 mmol/kg water
- Taste quality (sweet taste of glucose): sweet
- Threshold decrease (sweet taste of glucose): 16.0
- Taste quality (umami taste of MSG; [3]): umami
- Umami detection threshold (umami taste of MSG; [3]): 0.4 mmol/kg water
- Threshold decrease (umami taste of MSG; [4]): 4.0
- Salt detection threshold (salty taste of NaCl; mixture with NaCl, pH 7.0): 2.0 mmol/kg water
- Taste quality (salty taste of NaCl; mixture with NaCl, pH 7.0): salty
- Threshold decrease (salty taste of NaCl; mixture with NaCl, pH 7.0, vs NaCl in water 10.0 mmol/L): 5.0

SMILES: OC[C@H]1O[C@@](CO)(O[C@H]2O[C@H](CO)[C@@H](O)[C@H](O)[C@H]2O)[C@@H](O)[C@@H]1O [Sucrose, sucrose, reference compound]
- threshold of sucrose in water (sweet taste of sucrose; sucrose alone): ^aThe threshold of sucrose in water is 12.5 mmol/L.
- Taste quality (sweet taste of sucrose; sucrose and mixtures with Alapyridaine enantiomers (Table 10), pH not stated): sweet
- Detection threshold (sweet taste of sucrose; sweet, sucrose and mixtures with Alapyridaine enantiomers (Table 10), pH not stated): 12.5 mmol/kg water
